# Laboratory results reported in patent US6569878B1, “Substituted 4-amino-thiazol-2-yl compounds as cyclin-dependent kinase inhibitors” (Agouron Pharmaceuticals Inc., priority 1997, dated 2003).
# Target: T1, complex of human CDK4 and cyclin D3 (Homo sapiens, UniProt P11802)
# T1 construct: made in house; host or cells: insect cells, co-infected with baculovirus
# Assay: Inhibition of CDK4/cyclin D retinoblastoma kinase activity (D-type cyclin is D3)
# Assay type: biochemical
# Details: superscript a: D-type cyclin is D3; apparent Ki; read-out: Ki CDK 4/D
# Description: Cyclin-dependent kinase activity was measured by quantifying the enzyme-catalyzed, time-dependent incorporation of radioactive phosphate from [^32P]ATP or [^33P]ATP into a protein substrate. […] Reactions were initiated with enzyme, incubated at 30° C., and terminated after 20 minutes by the addition of ethylenediaminetetraacetic acid (EDTA) to 250 mM. […] Radioactivity was quantified by exposing the dried membranes to a phosphorimager.
# Apparent Ki values were measured by assaying enzyme activity in the presence of different inhibitor compound concentrations and subtracting the background radioactivity measured in the absence of enzyme. The kinetic parameters (kcat, Km for ATP) were measured for each enzyme under the usual assay conditions by determining the dependence of initial rates on ATP concentration. Inhibition data were fit to an equation for competitive inhibition using Kaleidagraph (Synergy Software), or were fit to an equation for competitive tight-binding inhibition using the software KineTic (BioKin, Ltd.).
# Phosphorylated Rb substrate was captured by microfiltration on a nitrocellulose membrane and quantified using a phosphorimager as described above. For measurement of tight-binding inhibitors, the enzyme complex concentration was lowered to 5 nM, and the assay duration was extended to 60 minutes, during which the time-dependence of product formation was linear.
# T1 sequence (P11802 whole entry): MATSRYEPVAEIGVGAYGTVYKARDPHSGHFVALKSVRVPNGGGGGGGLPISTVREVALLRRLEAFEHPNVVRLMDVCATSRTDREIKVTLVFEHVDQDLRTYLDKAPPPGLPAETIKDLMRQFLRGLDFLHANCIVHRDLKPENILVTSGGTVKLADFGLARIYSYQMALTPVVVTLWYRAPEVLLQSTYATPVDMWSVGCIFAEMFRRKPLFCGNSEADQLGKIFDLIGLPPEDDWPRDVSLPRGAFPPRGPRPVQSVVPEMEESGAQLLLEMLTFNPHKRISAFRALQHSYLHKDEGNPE
# T1 sequence (P30281 whole entry partner): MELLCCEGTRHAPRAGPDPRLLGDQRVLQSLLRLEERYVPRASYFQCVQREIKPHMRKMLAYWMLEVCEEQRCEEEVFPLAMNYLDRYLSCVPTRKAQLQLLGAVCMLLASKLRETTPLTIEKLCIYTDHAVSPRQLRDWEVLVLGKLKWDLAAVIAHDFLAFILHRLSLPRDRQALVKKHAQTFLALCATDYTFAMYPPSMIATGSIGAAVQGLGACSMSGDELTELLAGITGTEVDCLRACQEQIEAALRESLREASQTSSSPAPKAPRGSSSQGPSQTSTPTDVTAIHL
row,Ki,Structure (SMILES)
1,0.17 µM,"Nc1nc(NCCc2ccc(Cl)cc2)sc1C(=O)c1ccccc1[N+](=O)[O-] [C(16), {4-Amino-2-[2-(4-chloro-phenyl)-ethylamino]-thiazol-5-yl}-(2-nitro-phenyl)-methanone]"
2,12.9 µM,"CCN(CC)c1ccc(Nc2nc(N)c(C(=O)c3ccc([N+](=O)[O-])cc3)s2)cc1 [C(18), [4-Amino-2-(4-diethylamino-phenylamino)-thiazol-5-yl]-(4-nitro-phenyl)-methanone]"
3,0.33 µM,"COCCCNc1nc(N)c(C(=O)c2ccccc2[N+](=O)[O-])s1 [C(23), [4-Amino-2-(3-methoxy-propylamino)-thiazol-5-yl]-(2-nitro-phenyl)-methanone]"
4,0.38 µM,"CN(C)c1ccc(Nc2nc(N)c(C(=O)c3ccccc3N)s2)cc1 [D(3), [4-Amino-2-(4-dimethylamino-phenylamino)-thiazol-5-yl]-(2-amino-phenyl)-methanone]"
5,< 1 µM,COC(=O)c1cccc(C(=O)c2sc(Nc3cccc([N+](=O)[O-])c3)nc2N)c1 [I(17)]
6,0.44 µM,COC(=O)c1cccc(Nc2nc(N)c(C(=O)c3ccc4ccccc4c3)s2)c1 [I(15)]
7,0.051 µM,"Nc1nc(Nc2ccc([N+](=O)[O-])cc2)sc1C(=O)c1ccccc1[N+](=O)[O-] [C(13), [4-Amino-2-(4-nitro-phenylamino)-thiazol-5-yl]-(2-nitro-phenyl)-methanone]"
8,0.357 µM,"COc1ccccc1C(=O)c1sc(Nc2cccnc2)nc1N [C(29), [4-Amino-2-(pyridin-3-ylamino)-thiazol-5-yl]-(2-methoxy-phenyl)-methanone]"
9,2.5 µM,Nc1nc(NC2CCCCC2)sc1C(=O)c1ccc([N+](=O)[O-])cc1 [I(9)]
10,0.067 µM,N#Cc1cccc(Nc2nc(N)c(C(=O)c3ccccc3[N+](=O)[O-])s2)c1 [C(22)]
11,0.24 µM,"Nc1nc(Nc2cccnc2)sc1C(=O)c1ccc(Cl)cc1Cl [C(28), [4-Amino-2-(pyridin-3-ylamino)-thiazol-5-yl]-(2,4-dichloro-phenyl)-methanone]"
12,0.68 µM,"Cc1c(C(=O)c2sc(Nc3ccc4nc[nH]c4c3)nc2N)sc2ccc(Cl)cc12 [C(10), [4-Amino-2-(1H-benzoimidazol-6-yl-amino)-thiazol-5-yl]-(5-chloro-3-methyl-benzo[b]thiophen-2-yl)-methanone]"
13,0.51 µM,"Cc1c(C(=O)c2sc(Nc3ccc(N(C)C)cc3)nc2N)sc2ccccc12 [C(7), [4-Amino-2-((4-dimethylaminophenyl)amino)-thiazol-5-yl]-(3-methyl-benzo[b]thiophen-2-yl)-methanone]"
14,2.4 µM,COC(=O)c1cccc(Nc2nc(N)c(C(=O)c3cccc(OC)c3)s2)c1 [I(13)]
15,0.13 µM,"Nc1nc(Nc2ccc3c(c2)OCO3)sc1C(=O)c1ccccc1[N+](=O)[O-] [C(11), [4-Amino-2-(benzo[1,3]dioxol-5-yl-amino)-thiazol-5-yl]-(2-nitro-phenyl)-methanone]"
16,~1.5 µM,CN(C)c1ccc(Nc2nc(N)c(C(=O)c3ccc(F)cc3)s2)cc1 [I(7)]
17,1.17 µM,"Nc1nc(Nc2ccc(S(N)(=O)=O)cc2)sc1C(=O)c1ccc(C(=O)O)cc1 [E(2), 4-[4-Amino-2-(4-sulfamoyl-phenylamino)-thiazole-5-carbonyl]-benzoic Acid]"
18,0.315 µM,"Cn1cccc1C(=O)c1sc(Nc2ccc3nc[nH]c3c2)nc1N [C(43), [4-Amino-2-(1H-benzimidazol-5-ylamino)-thiazol-5-yl]-(1-methyl-1H-pyrrol-2-yl)-methanone]"
19,~0.3 µM,"Nc1nc(Nc2ccccc2)sc1C(=O)c1ccc([N+](=O)[O-])cc1 [A(2), (4-Amino-2-phenylamino-thiazol-5-yl)-(4-nitrophenyl)-methanone]"
20,1.02 µM,"COc1ccccc1C(=O)c1sc(NCCc2ccc(Cl)cc2)nc1N [C(27), {4-Amino-2-[2-(4-chloro-phenyl)-ethylamino]-thiazol-5-yl}-(2-methoxy-phenyl)-methanone]"
21,~0.128 µM,"CC(=O)c1ccc(Nc2nc(N)c(C(=O)c3sccc3C)s2)cc1 [C(44), 1-{4-[4-Amino-5-(3-methyl-thiophene-2-carbonyl)-thiazol-2-ylamino]-phenyl}-ethanone]"
22,3 µM,"Cc1c(C(=O)c2sc(Nc3ccc(N4CCOCC4)cc3)nc2N)ncn1C [C(77), [4-Amino-2-(4-morpholin-4-yl-phenylamino)-thiazol-5-yl]-(1,5-dimethyl-1H-imidazol-4-yl)-methanone]"

# Further lines, the compound ahead of its results:
row,Structure (SMILES),Ki
1,Nc1nc(Nc2ccccc2)sc1C(=O)c1ccc(F)cc1 [I(11)],0.52 µM
2,Cc1c(C(=O)c2sc(Nc3ccc(N(C)C)cc3)nc2N)sc2ccc(Cl)cc12 [C(9)],0.74 µM
3,"Cc1ccc(Nc2nc(N)c(C(=O)c3ccc(C)cc3C)s2)cc1 [A(14), [4-Amino-2-(p-tolylamino)-thiazol-5-yl]-(2,4-dimethylphenyl)-methanone]",0.18 µM
4,"Nc1nc(Nc2cccnc2)sc1C(=O)c1ccccc1[N+](=O)[O-] [A(11), [4-Amino-2-(pyridin-3-ylamino)-thiazol-5-yl]-(2-nitro-phenyl)-methanone]",0.13 µM
5,"Nc1nc(Nc2cccnc2)sc1C(=O)c1ccc2ccccc2c1 [C(30), [4-Amino-2-(pyridin-3-ylamino)-thiazol-5-yl]-naphthalen-2-yl-methanone]",1.4 µM
6,"COc1ccc(Nc2nc(N)c(C(=O)c3[nH]cnc3C)s2)cc1 [C(40), [4-Amino-2-(4-methoxy-phenylamino)-thiazol-5-yl]-(4-methyl-1H-imidazol-5-yl)-methanone]",3.84 µM
7,COc1cc(C(=O)c2sc(Nc3ccccc3)nc2N)cc(OC)c1OC [I(16)],1.88 µM
8,"CC(C)c1ccc(Nc2nc(N)c(C(=O)c3ccccc3[N+](=O)[O-])s2)cc1 [C(15), [4-Amino-2-(4-isopropyl-phenylamino)-thiazol-5-yl]-(2-nitro-phenyl)-methanone]",0.057 µM
9,"COC(=O)c1cccc(Nc2nc(N)c(C(=O)c3ccccc3OC)s2)c1 [C(26), Methyl 3-[4-Amino-5-(2-methoxy-benzoyl)-thiazol-2-ylamino]-benzoate]",0.33 µM
10,"Nc1nc(Nc2ccc(I)cc2)sc1C(=O)c1ccccc1[N+](=O)[O-] [A(7), [4-Amino-2-(4-iodo-phenylamino)-thiazol-5-yl]-(2-nitro-phenyl)-methanone]",0.31 µM
11,Nc1nc(NC2CCCCC2)sc1C(=O)c1ccc(F)cc1 [I(8)],4.3 µM
12,"Nc1nc(Nc2ccc(Sc3ncc(C(F)(F)F)cc3Cl)cc2)sc1C(=O)c1ccccc1[N+](=O)[O-] [C(25), {4-Amino-2-[4-(2-chloro-5-trifluoromethyl-pyridin-2-yl sulfanyl)-phenylamino]-thiazol-5-yl}-(2-nitro-phenyl)-methanone]",1.3 µM
13,"CCN(CC)c1ccc(Nc2nc(N)c(C(=O)c3ccccc3[N+](=O)[O-])s2)cc1 [C(17), [4-Amino-2-(4-diethylamino-phenylamino)-thiazol-5-yl]-(2-nitro-phenyl)-methanone]",0.072 µM
14,"Nc1nc(NC2CCCCC2)sc1C(=O)c1ccccc1[N+](=O)[O-] [C(14), (4-Amino-2-cyclohexylamino-thiazol-5-yl)-(2-nitro-phenyl)-methanone]",0.057 µM
15,"COc1ccc(C(=O)c2sc(Nc3ccc(C)cc3)nc2N)c(OC)c1 [A(13), [4-Amino-2-(p-tolylamino)-thiazol-5-yl]-(2,4-dimethoxyphenyl)-methanone]",0.25 µM
16,"COc1ccc(C(=O)c2sc(Nc3ccc(OCc4ccccc4)cc3)nc2N)cc1 [C(2), [4-Amino-2-(4-benzyloxy-phenylamino)-thiazol-5-yl]-(4-methoxy-phenyl)-methanone]",> 5 µM
17,"Nc1ccc(C(=O)c2sc(Nc3ccccc3)nc2N)cc1 [D(2), (4-Amino-phenyl)-(4-amino-2-phenylamino-thiazol-5-yl)-methanone]",> 5 µM
18,"COc1ccccc1C(=O)c1sc(Nc2ccc3nc[nH]c3c2)nc1N [C(32), [4-Amino-2-(1H-benzoimidazol-6-ylamino)-thiazol-5-yl]-(2-methoxy-phenyl)-methanone]",0.094 µM
19,Cc1ccc(Nc2nc(N)c(C(=O)c3ccccc3)s2)cc1 [I(23)],1.5 µM
20,"Nc1ccc(Nc2nc(N)c(C(=O)c3ccccc3)s2)cc1 [D(4), [4-Amino-2-(4-amino-phenylamino)-thiazol-5-yl]-phenyl-methanone]",0.8 µM

# Same assay, conditions: superscript a: D-type cyclin is D3; μM; read-out: Ki CDK 4/D
row,Ki,Structure (SMILES)
1,> 20 µM,COc1ccc(C(=O)c2sc(Nc3ccccc3)nc2N)cc1 [I(10)]
2,> 50 µM,COC(=O)c1cccc(Nc2nc(N)c(C(=O)c3ccc(Br)cc3)s2)c1 [I(14)]
3,> 25 µM,"Nc1nc(Nc2ccc([N+](=O)[O-])cc2)sc1C(=O)c1ccccc1 [A(8), [4-Amino-2-(4-nitro-phenylamino)-thiazol-5-yl]-phenyl-methanone]"

# Further lines, the compound ahead of its results:
row,Structure (SMILES),Ki
1,"COc1ccc(CNc2nc(N)c(C(=O)c3cc(C)sc3C)s2)cc1 [C(68), [4-Amino-2-(4-methoxy-benzylamino)-thiazol-5-yl]-(2,5-dimethylthiophen-3-yl)-methanone]",> 30 µM
2,Nc1nc(Nc2ccc(S(N)(=O)=O)cc2)sc1C(=O)c1ccc(OC(=O)c2ccccc2)cc1 [C(39)],> 100 µM
3,COc1ccc(C(=O)Nc2nc(N)c(C(=O)c3ccccc3[N+](=O)[O-])s2)cc1 [I(18)],> 25 µM
4,"CCC(Nc1nc(N)c(C(=O)c2ccc([N+](=O)[O-])cc2)s1)C(=O)OC (stereo in doubt) [C(6), Methyl 2(S)-[4-Amino-5-(4-nitro-benzoyl)-thiazol-2-ylamino]-butyrate]",> 10 µM
